# Assay results as given in EP3495350B1, “COMPOUND INHIBITING FORMATION OF C-MYC/MAX/DNA COMPLEX” (National Cancer Center, priority 2016, dated 2018).
# pIC50: −log10 of the molar value.
# Legend:
# KU19-19 = experiment: Cell based assay, cell viability (CellTiter-Glo), KU19-19; conditions: Homo sapiens, KU-19-19; 72 hours, 0 to 2 µM; read-out: cell based assay cell line 2 KU19-19 IC50
# Procedure: (§1) Commercially available bladder cancer cell lines were treated with trypsin-EDTA and seeded in each well of a 96 well plate, followed by incubation for 24 hours. After incubation, candidate compounds were added to each well at a final concentration of 0 to 2 µM. The compound-treated cells were further incubated for 72 hours. Cell viability was measured using an ATP detection method (CellTiter-Glo Luminescent Cell Viability Assay, Promega).
# (§2) The selectivity of the compounds of the present disclosure to cancer cells was evaluated in the same manner as described in "2. Cell based assay".
# MBT-2 = experiment: Cell based assay, cell viability (CellTiter-Glo), MBT-2; conditions: 72 hours, 0 to 2 µM; read-out: cell based assay cell line 1 MBT-2 IC50
# Procedure: as §1, §2
# 253J = experiment: Cell based assay, cell viability (CellTiter-Glo), 253J; conditions: Homo sapiens; 72 hours, 0 to 2 µM; read-out: cell based assay cell line 3 253J IC50
# Procedure: as §1, §2
# UM-UC-3 = experiment: Cell based assay, cell viability (CellTiter-Glo), UM-UC-3; conditions: Homo sapiens, UMUC3; 72 hours, 0 to 2 µM; read-out: cell based assay cell line 4 UM-UC-3 IC50
# Procedure: as §1, §2
# zebrafish = experiment: Cardiotoxicity experiment using zebrafish (heart rate, lethality); assay type: in vivo; conditions: 10 µM, n=10
smiles,measurement,setting,value
"CC(=O)c1c([S+]([O-])Cc2ccc(C(F)(F)F)o2)[nH]c2c(Br)ccc(Cl)c2c1=O (stereo not shown) [Compound 72, 3-acetyl-8-bromo-5-chloro-2-(((5-(trifluoromethyl)furan-2-yl)methyl)sulfinyl)quinolin-4(1H)-one]",pIC50,KU19-19,5.86
same,pIC50,MBT-2,6.00
same,pIC50,253J,6.08
same,pIC50,UM-UC-3,6.09
"CC(=O)c1c([S+]([O-])Cc2cccnc2)[nH]c2c(Br)ccc(Cl)c2c1=O (stereo not shown) [Compound 84, 3-acetyl-8-bromo-5-chloro-2-((pyridin-3-ylmethyl)sulfinyl)quinolin-4(1H)-one]",pIC50,KU19-19,5.82
same,pIC50,MBT-2,6.17
same,pIC50,253J,6.06
same,pIC50,UM-UC-3,6.12
"COc1cccc2[nH]c([S+]([O-])Cc3ccc(S(F)(F)(F)(F)F)cc3)c(C(C)=O)c(=O)c12 (stereo not shown) [Compound 93, 3-acetyl-5-methoxy-2-((4-(pentafluoro-λ6-sulfanyl)benzyl)sulfinyl)quinolin-4(1H)-one]",pIC50,KU19-19,< 5.70
same,pIC50,MBT-2,< 5.70
same,pIC50,253J,< 5.70
same,pIC50,UM-UC-3,< 5.70
"CC(=O)c1c([S+]([O-])Cc2ccc(Cl)nc2)[nH]c2c(Br)ccc(Cl)c2c1=O (stereo not shown) [Compound 104, 3-acetyl-8-bromo-5-chloro-2-(((6-chloropyridin-3-yl)methyl)sulfinyl)quinolin-4(1H)-one]",pIC50,KU19-19,5.82
same,pIC50,MBT-2,6.15
same,pIC50,253J,6.06
same,pIC50,UM-UC-3,5.95
"CC(=O)c1c([S+]([O-])Cc2cccc(C#N)c2)[nH]c2c(Br)ccc(Cl)c2c1=O (stereo not shown) [Compound 28, 3-(((3-acetyl-8-bromo-5-chloro-4-oxo-1,4-dihydroquinolin-2-yl)sulfinyl)methyl)benzonitrile]",pIC50,KU19-19,5.84
same,pIC50,MBT-2,6.10
same,pIC50,253J,6.13
same,pIC50,UM-UC-3,6.10
"CC(=O)c1c([S+]([O-])Cc2ccc(C(F)(F)F)nc2C)[nH]c2c(Br)ccc(Cl)c2c1=O (stereo not shown) [Compound 102, 3-acetyl-8-bromo-5-chloro-2-(((2-methyl-6-(trifluoromethyl)pyridin-3-yl)methyl)sulfinyl)quinolin-4(1H)-one]",pIC50,KU19-19,5.80
same,pIC50,MBT-2,6.11
same,pIC50,253J,6.08
same,pIC50,UM-UC-3,5.97
"Cc1cc(C[S+]([O-])c2[nH]c3c(Cl)ccc(Cl)c3c(=O)c2C(=O)C2CC2)no1 (stereo not shown) [Compound 97, 5,8-dichloro-3-(cyclopropanecarbonyl)-2-(((5 - methylisoxazol-3-yl)methyl)sulfinyl)quinolin-4(1H)-one]",pIC50,KU19-19,5.79
same,pIC50,MBT-2,6.09
same,pIC50,253J,5.92
same,pIC50,UM-UC-3,5.90
"CC(=O)c1c([S+]([O-])Cc2ccccc2)nc2c(Br)ccc(Cl)c2c1O (stereo not shown) [Compound 53, 1-(2-(benzylsulfinyl)-8-bromo-5-chloro-4-hydroxyquinolin-3-yl)ethan-1-one]",pIC50,KU19-19,< 5.70
same,pIC50,MBT-2,< 5.70
same,pIC50,253J,< 5.70
same,pIC50,UM-UC-3,< 5.70
"O=C(c1ccccc1)c1c([S+]([O-])Cc2ccc(S(F)(F)(F)(F)F)cc2)[nH]c2c(F)ccc(F)c2c1=O (stereo not shown) [Compound 87, 3-benzoyl-5,8-difluoro-2-((4-(pentafluoro-λ6-sulfanyl)benzyl)sulfinyl)quinolin-4(1H)-one]",pIC50,KU19-19,< 5.70
same,pIC50,MBT-2,< 5.70
same,pIC50,253J,< 5.70
same,pIC50,UM-UC-3,< 5.70
"CC(=O)c1c([S+]([O-])Cc2cnc3[nH]ccc3c2)[nH]c2c(Br)ccc(Cl)c2c1=O (stereo not shown) [Compound 107, 2-(((1H-pyrrolo[2,3-b]pyridin-5-yl)methyl)sulfinyl)-3-acetyl-8-bromo-5-chloroquinolin-4(1H)-one]",pIC50,KU19-19,< 5.70
same,pIC50,MBT-2,< 5.70
same,pIC50,253J,< 5.70
same,pIC50,UM-UC-3,< 5.70
"CC(=O)c1c([S+]([O-])Cc2ccc([S+]([O-])C(F)(F)F)cc2)[nH]c2c(Br)ccc(Cl)c2c1=O (stereo not shown) [Compound 64, 3-acetyl-8-bromo-5-chloro-2-((4-((trifluoromethyl)sulfinyl)benzyl)sulfinyl)quin olin-4(1H)-one]",pIC50,KU19-19,5.85
same,pIC50,MBT-2,6.08
same,pIC50,253J,6.02
same,pIC50,UM-UC-3,5.97
"COC(=O)c1ccc(C[S+]([O-])c2[nH]c3c(Cl)ccc(Cl)c3c(=O)c2C(C)=O)o1 (stereo not shown) [Compound 89, methyl 5-(((3-acetyl-5,8-dichloro-4-oxo-1,4-dihydroquinolin-2-yl)sulfinyl)methyl)furan-2-carboxylate]",pIC50,KU19-19,< 5.70
same,pIC50,MBT-2,5.90
same,pIC50,253J,5.74
same,pIC50,UM-UC-3,5.83
"CC(=O)c1c([S+]([O-])Cc2ccc(C(=O)c3ccccc3)cc2)[nH]c2c(Br)ccc(Cl)c2c1=O (stereo not shown) [Compound 63, 3-acetyl-2-((4-benzoylbenzyl)sulfinyl)-8-bromo-5-chloroquinolin-4(1H)-one]",pIC50,KU19-19,< 5.70
same,pIC50,MBT-2,< 5.70
same,pIC50,253J,< 5.70
same,pIC50,UM-UC-3,< 5.70
"CC(=O)c1c([S+]([O-])Cc2ccc(NS(C)(=O)=O)cc2)[nH]c2c(Br)ccc(Cl)c2c1=O (stereo not shown) [Compound 103, N-(4-(((3-acetyl-8-bromo-5-chloro-4-oxo-1,4-dihydroquinolin-2-yl)sulfinyl)methyl)phenyl)methanesulfonamide]",pIC50,KU19-19,< 5.70
same,pIC50,MBT-2,< 5.70
same,pIC50,253J,< 5.70
same,pIC50,UM-UC-3,< 5.70
"Cc1cc(C[S+]([O-])c2[nH]c3c(Br)ccc(Cl)c3c(=O)c2C(=O)C2CC2)no1 (stereo not shown) [Compound 96, 8-bromo-5-chloro-3-(cyclopropanecarbonyl)-2-(((5-methylisoxazol-3-yl)methyl)sulfinyl)quinolin-4(1H)-one]",pIC50,KU19-19,< 5.70
same,pIC50,MBT-2,5.97
same,pIC50,253J,5.83
same,pIC50,UM-UC-3,5.79
"COc1ccccc1[S+]([O-])c1[nH]c2c(Br)ccc(Cl)c2c(=O)c1C(C)=O (stereo not shown) [Compound 15, 3-acetyl-8-bromo-5-chloro-2-((2-methoxyphenyl)sulfinyl)quinolin-4(1H)-one]",pIC50,KU19-19,5.72
same,pIC50,MBT-2,< 5.70
same,pIC50,253J,< 5.70
same,pIC50,UM-UC-3,< 5.70
"COc1ccc(CCN2CCC(Nc3nc4ccccc4n3Cc3ccc(F)cc3)CC2)cc1 [Astemizole, reference compound]",Changes in heart rate (%),zebrafish; mean,46.2%
same,Lethality,zebrafish,0/10
"COc1cccc(C[S+]([O-])c2[nH]c3c(Br)ccc(Cl)c3c(=O)c2C(C)=O)c1 (stereo not shown) [Compound 55, 3-acetyl-8-bromo-5-chloro-2-((3-methoxybenzyl)sulfinyl)quinolin-4(1H)-one]",pIC50,KU19-19,5.86
same,pIC50,MBT-2,< 5.70
same,pIC50,253J,5.88
same,pIC50,UM-UC-3,5.80
"CC(=O)c1c([S+]([O-])Cc2ccc([N+](=O)[O-])cc2)[nH]c2c(Cl)ccc(Cl)c2c1=O (stereo not shown) [Compound 57, 3-acetyl-5,8-dichloro-2-((4-nitrobenzyl)sulfinyl)quinolin-4(1H)-one]",pIC50,KU19-19,5.74
same,pIC50,MBT-2,< 5.70
same,pIC50,253J,5.72
same,pIC50,UM-UC-3,< 5.70
"COCCNc1ccc(C[S+]([O-])c2[nH]c3c(Br)ccc(Cl)c3c(=O)c2C(C)=O)cn1 (stereo not shown) [Compound 105, 3-acetyl-8-bromo-5-chloro-2-(((6-((2-methoxyethyl)amino)pyridin-3-yl)methyl)sulfinyl)quinolin-4(1H)-one]",pIC50,KU19-19,< 5.70
same,pIC50,MBT-2,< 5.70
same,pIC50,253J,< 5.70
same,pIC50,UM-UC-3,< 5.70
"COC(=O)c1ccc(C[S+]([O-])c2[nH]c3c(Cl)ccc(Cl)c3c(=O)c2C(C)=O)cc1 (stereo not shown) [Compound 91, methyl 4-(((3-acetyl-5,8-dichloro-4-oxo-1,4-dihydroquinolin-2-yl)sulfinyl)methyl)benzoate]",pIC50,KU19-19,< 5.70
same,pIC50,MBT-2,5.86
same,pIC50,253J,< 5.70
same,pIC50,UM-UC-3,5.81
